This is an account of results in ChEMBL document CHEMBL4616721, “Nitrogen-Walk Approach to Explore Bioisosteric Replacements in a Series of Potent A2B Adenosine Receptor Antagonists” (J Med Chem, 2020).

In data set [1] the target is T1, Adenosine receptor A3 (Homo sapiens) (UniProt P0DMS8).
T1 sequence (whole entry): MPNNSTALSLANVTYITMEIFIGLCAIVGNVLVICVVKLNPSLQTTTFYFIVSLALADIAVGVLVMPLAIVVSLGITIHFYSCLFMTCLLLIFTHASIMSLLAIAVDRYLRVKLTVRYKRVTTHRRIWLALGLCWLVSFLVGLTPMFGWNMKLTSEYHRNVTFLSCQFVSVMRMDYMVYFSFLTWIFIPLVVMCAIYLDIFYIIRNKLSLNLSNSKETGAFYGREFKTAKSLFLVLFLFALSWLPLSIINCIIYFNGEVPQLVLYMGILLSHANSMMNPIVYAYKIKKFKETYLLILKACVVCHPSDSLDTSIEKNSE
The experiment in a line: Displacement [3H]NECA from adenosine A3 receptor in human HeLa cell membranes at 1 uM incubated for 180 mins by scintillation counting method relative to control.

For data set [2], the target named is T2, CYP2D6 (Homo sapiens, UniProt P10635). Kind of data set: Inhibition of CYP2D6 (unknown origin) expressed in insect cell microsomes at 1 uM using dibenzylfluorescein substrate by fluorescence based assay relative to control. The following applies: insect cell microsomes expressing CYP2D6, probe dibenzylfluorescein. It counts as ADME.
Data set [3] concerns the target T3, Adenosine receptor A1 (Homo sapiens) (UniProt P30542).
T3 sequence (whole entry): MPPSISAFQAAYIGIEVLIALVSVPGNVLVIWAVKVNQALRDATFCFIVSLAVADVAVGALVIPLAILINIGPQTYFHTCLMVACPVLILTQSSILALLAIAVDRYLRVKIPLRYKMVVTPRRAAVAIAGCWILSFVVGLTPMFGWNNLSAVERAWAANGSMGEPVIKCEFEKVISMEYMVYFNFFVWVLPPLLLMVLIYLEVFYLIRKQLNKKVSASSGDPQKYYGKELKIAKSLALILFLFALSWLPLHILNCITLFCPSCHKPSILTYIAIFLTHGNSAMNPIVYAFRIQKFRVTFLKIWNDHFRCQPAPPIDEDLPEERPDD
Kind of data set: Displacement [3H]DPCPX from human adenosine A1 receptor expressed in CHO cell membranes at 1 uM incubated for 60 mins by scintillation counting method relative to control.

A further data set concerns the target Cytochrome P450 3A4 (Homo sapiens, UniProt P08684). Kind of data set: Inhibition of CYP3A4 (unknown origin) expressed in insect cell microsomes using dibenzylfluorescein substrate by fluorescence based assay. It counts as ADME.
For data set [4], the target named is T4, Adenosine receptor A2a (Homo sapiens, UniProt P29274). Kind of data set: Displacement [3H]ZM241385 from adenosine A2A receptor in human HeLa cell membranes incubated for 30 mins by scintillation counting method.
The target in another data set is T5, Adenosine receptor A2b (Homo sapiens, UniProt P29275).
T5 sequence (P29275 whole entry): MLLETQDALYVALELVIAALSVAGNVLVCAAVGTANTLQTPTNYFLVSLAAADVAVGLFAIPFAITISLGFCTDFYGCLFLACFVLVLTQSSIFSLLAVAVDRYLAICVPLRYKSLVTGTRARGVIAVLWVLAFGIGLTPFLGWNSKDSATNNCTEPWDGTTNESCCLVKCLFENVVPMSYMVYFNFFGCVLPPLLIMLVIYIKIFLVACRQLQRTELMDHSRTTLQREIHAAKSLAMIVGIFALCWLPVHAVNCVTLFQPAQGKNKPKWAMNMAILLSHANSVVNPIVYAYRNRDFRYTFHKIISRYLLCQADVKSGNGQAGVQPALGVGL
The experiment in a line: Displacement [3H]DPCPX from human adenosine A2B receptor expressed in HEK293 cell membranes incubated for 60 mins by scintillation counting method.

The target in data set [5] is T2, CYP2D6. The experiment in a line: Inhibition of CYP2D6 (unknown origin) expressed in insect cell microsomes at 10 uM using dibenzylfluorescein substrate by fluorescence based assay relative to control. The following applies: insect cell microsomes expressing CYP2D6, probe dibenzylfluorescein. The format is ADME.
The target of a further data set is T6, Adenosine receptor A1 (Homo sapiens, UniProt P30542).
T6 sequence (P30542 whole entry): T3 sequence (whole entry)
Kind of data set: Displacement [3H]DPCPX from human adenosine A1 receptor expressed in CHO cell membranes incubated for 60 mins by scintillation counting method.

In data set [6] the target is T4, Adenosine receptor A2a. The experiment in a line: Displacement [3H]ZM241385 from adenosine A2A receptor in human HeLa cell membranes at 1 uM incubated for 30 mins by scintillation counting method relative to control.
Data set [7] is described as follows: Drug metabolism in human liver microsomes after 60 mins in presence of NADP,glucose-6-phosphate and glucose-6-phosphate dehydrogenase by UPLC-MS/MS analysis. The format is ADME, Microsome. The following applies: read-out: Drug metabolism. (In general: Microsomes from liver hold many membrane-bound enzymes, among them those of drug oxidation.)
Data set [8] in a line: Solubility in pH 7 PBS incubated for 4 hrs by nephelometry. The format is physicochemical.
In a further data set the target is T7, Adenosine receptor A3 (Homo sapiens, UniProt P0DMS8).
T7 sequence (P0DMS8 whole entry): T1 sequence (whole entry)
Kind of data set: Displacement [3H]NECA from adenosine A3 receptor in human HeLa cell membranes incubated for 180 mins by scintillation counting method.

Each structure is given as a SMILES string.

T4 sequence (P29274 whole entry): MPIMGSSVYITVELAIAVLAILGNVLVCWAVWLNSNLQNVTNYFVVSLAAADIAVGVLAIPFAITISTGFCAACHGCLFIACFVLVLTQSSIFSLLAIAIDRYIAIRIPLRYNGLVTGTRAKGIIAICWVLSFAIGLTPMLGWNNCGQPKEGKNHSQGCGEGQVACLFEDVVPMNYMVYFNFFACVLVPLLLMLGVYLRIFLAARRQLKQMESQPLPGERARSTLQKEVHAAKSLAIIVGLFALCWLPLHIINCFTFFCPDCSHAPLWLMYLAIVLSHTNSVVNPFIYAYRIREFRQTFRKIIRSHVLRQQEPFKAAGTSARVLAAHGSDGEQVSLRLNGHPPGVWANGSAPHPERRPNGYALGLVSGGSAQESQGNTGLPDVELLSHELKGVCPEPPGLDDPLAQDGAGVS
T2 sequence (P10635 whole entry): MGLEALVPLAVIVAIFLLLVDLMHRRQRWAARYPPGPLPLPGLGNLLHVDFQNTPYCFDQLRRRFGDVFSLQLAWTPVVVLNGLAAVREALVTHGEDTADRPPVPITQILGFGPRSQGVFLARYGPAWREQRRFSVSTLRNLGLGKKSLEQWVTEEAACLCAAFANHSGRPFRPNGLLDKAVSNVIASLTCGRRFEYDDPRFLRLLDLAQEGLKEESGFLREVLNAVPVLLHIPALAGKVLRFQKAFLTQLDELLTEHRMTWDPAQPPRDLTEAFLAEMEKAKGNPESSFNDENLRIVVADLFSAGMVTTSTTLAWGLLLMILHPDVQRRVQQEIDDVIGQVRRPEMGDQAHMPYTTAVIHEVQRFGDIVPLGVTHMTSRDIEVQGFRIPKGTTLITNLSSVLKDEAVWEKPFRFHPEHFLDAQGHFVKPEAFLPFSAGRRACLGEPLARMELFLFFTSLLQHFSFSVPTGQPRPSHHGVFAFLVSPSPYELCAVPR
Cytochrome P450 3A4, sequence (P08684 whole entry): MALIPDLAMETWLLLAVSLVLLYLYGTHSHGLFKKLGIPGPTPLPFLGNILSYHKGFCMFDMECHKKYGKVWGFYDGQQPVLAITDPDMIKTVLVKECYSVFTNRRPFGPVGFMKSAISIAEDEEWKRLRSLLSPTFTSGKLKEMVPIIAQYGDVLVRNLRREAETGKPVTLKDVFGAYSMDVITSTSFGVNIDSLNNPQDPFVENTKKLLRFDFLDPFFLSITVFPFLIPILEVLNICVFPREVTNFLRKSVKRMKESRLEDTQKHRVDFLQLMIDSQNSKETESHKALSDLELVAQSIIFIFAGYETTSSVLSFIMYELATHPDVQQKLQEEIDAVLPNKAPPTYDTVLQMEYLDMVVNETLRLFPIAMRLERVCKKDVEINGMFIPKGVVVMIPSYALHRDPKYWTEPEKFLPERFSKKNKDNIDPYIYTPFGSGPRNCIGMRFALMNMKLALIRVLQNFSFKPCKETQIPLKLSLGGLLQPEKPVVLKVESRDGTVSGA

As usually defined, the inhibition is the change of the read-out against control, counted positive when it falls. What is called IC50 is the midpoint of a concentration-inhibition curve. High values mean lower potency, low ones higher potency. The Ki is a measure of affinity in units of concentration, obtained from inhibition or displacement. Read a high Ki as lower affinity. For `CCOC(=O)C1=C(C)Nc2nc3ccccc3n2C1c1ncc[nH]1` (racemic), the inhibition in [1] came to 1%; in [3] it was 6%. The inhibition at 1 µM on CYP2D6 [2] was found to be 8%. This molecule also had an IC50 on Cytochrome P450 3A4 of 4540 nM. The Ki on Adenosine receptor A2a [4] turned out to be 5 nM; at Adenosine receptor A2b, 402 nM. Moreover, on CYP2D6 [5], the inhibition at 10 µM stood at 18%.
For the molecule `CC1=C(C(=O)OC(C)C)C(c2ncco2)n2c(nc3ccccc32)N1` (racemic), the results for the inhibition in data set [1] and in data set [3] were 10% and 1%, respectively. Moreover, the Ki was determined as 1 nM on Adenosine receptor A2a [4] and 708 nM on Adenosine receptor A2b.
As for `CC1=C(C(=O)OC(C)C)C(c2cnco2)n2c(nc3ccccc32)N1` (racemic), affinity at Adenosine receptor A1 was put at a Ki of 301 nM. For the same molecule, the inhibition was determined as 39% in data set [1] and 38% at Adenosine receptor A2a [6].
On to `CCOC(=O)C1=C(C)Nc2nc3ccccc3n2C1c1nccs1` (racemic), for which the inhibition in [1] was 1%; in data set [3] it was 3%. Moreover, the figures for the Ki on Adenosine receptor A2a [4] and on Adenosine receptor A2b were 3 nM and 388 nM, respectively.
As usually defined, the solubility (kinetic) is the concentration staying in solution when a stock, usually in DMSO, is diluted into the medium. In the case of `CCOC(=O)C1=C(C)Nc2nc3ccccc3n2C1c1cocn1` (racemic), the metabolised at 1 h in [7] was 5.62%. Moreover, on CYP2D6 [2], the inhibition at 1 µM was determined as 13%. On Cytochrome P450 3A4, this molecule had a 50% inhibitory concentration (IC50) of 6410 nM. In data set [8], this molecule came in with a solubility (kinetic) at 4 h above 20 µM. The molecule further came in with an inhibition at 10 µM on CYP2D6 [5] of 19%.
For `CCOC(=O)C1=C(C)Nc2nc3ccccc3n2C1c1cnco1` (racemic), the Ki is 233 nM at Adenosine receptor A1, 418 nM at Adenosine receptor A3, 282 nM at Adenosine receptor A2a [4] and 508 nM on Adenosine receptor A2b.
For the molecule `CCOC(=O)C1=C(C)Nc2nc3ccccc3n2C1c1ccns1` (racemic), the Ki at Adenosine receptor A1 came out at 20.2 nM; on Adenosine receptor A2b, 98.7 nM. Besides, the inhibition came to 8% in data set [1] and 7% on Adenosine receptor A2a [6].
In the case of `CC1=C(C(=O)OC(C)C)C(c2cn[nH]c2)n2c(nc3ccccc32)N1` (racemic), the Ki on Adenosine receptor A1 was 8.3 nM; on Adenosine receptor A2b, 340 nM. The inhibition in data set [1] came out at 6%; at Adenosine receptor A2a [6], 40%.
As for `CCOC(=O)C1=C(C)Nc2nc3ccccc3n2C1c1ncco1` (racemic), the values for the inhibition in [1] and in data set [3] were 10% and 8%, respectively. The Ki turned out to be 2 nM at Adenosine receptor A2a [4] and 769 nM on Adenosine receptor A2b.
As for `CC1=C(C(=O)OC(C)C)C(c2cocn2)n2c(nc3ccccc32)N1` (racemic), the inhibition in data set [1] worked out at 16%; on Adenosine receptor A2a [6], 19%; in data set [3], 7%. Moreover, the inhibition at 1 µM on CYP2D6 [2] was found to be 23%. For the same molecule, the IC50 against Cytochrome P450 3A4 worked out at 5920 nM. Also, the Ki on Adenosine receptor A2b amounted to 43.4 nM. The same molecule gave an inhibition at 10 µM against CYP2D6 [5] of 43%.
As for `CCOC(=O)C1=C(C)Nc2nc3ccccc3n2C1c1cn[nH]c1` (racemic), the Ki on Adenosine receptor A1 came out at 14.8 nM; on Adenosine receptor A2b, 92.6 nM. For the same molecule, the figures for the inhibition (in [1]; at Adenosine receptor A2a [6]) were 1% and 28%, respectively.
